In the assay the target is recombinant human His6-USP1/His6-UAF1 composite protein (Homo sapiens (Human), UniProt O94782). The experiment in a line: USP1 enzyme activity detection (Ub-Rho fluorescence). It is filed as biochemical. To be noted: USP1/UAF1, Ub-Rho substrate 300 nM, 1 hour pre-incubation; read-out: IC50 (enzymatic inhibition of USP1).

Experimental findings from patent US20250368667A1, “USP1 INHIBITOR” (Shanghai Qilu Pharmaceutical Research and Development …, priority 2022, published 2025) are described below.

recombinant human His6-USP1/His6-UAF1 composite protein, sequence (O94782 whole entry): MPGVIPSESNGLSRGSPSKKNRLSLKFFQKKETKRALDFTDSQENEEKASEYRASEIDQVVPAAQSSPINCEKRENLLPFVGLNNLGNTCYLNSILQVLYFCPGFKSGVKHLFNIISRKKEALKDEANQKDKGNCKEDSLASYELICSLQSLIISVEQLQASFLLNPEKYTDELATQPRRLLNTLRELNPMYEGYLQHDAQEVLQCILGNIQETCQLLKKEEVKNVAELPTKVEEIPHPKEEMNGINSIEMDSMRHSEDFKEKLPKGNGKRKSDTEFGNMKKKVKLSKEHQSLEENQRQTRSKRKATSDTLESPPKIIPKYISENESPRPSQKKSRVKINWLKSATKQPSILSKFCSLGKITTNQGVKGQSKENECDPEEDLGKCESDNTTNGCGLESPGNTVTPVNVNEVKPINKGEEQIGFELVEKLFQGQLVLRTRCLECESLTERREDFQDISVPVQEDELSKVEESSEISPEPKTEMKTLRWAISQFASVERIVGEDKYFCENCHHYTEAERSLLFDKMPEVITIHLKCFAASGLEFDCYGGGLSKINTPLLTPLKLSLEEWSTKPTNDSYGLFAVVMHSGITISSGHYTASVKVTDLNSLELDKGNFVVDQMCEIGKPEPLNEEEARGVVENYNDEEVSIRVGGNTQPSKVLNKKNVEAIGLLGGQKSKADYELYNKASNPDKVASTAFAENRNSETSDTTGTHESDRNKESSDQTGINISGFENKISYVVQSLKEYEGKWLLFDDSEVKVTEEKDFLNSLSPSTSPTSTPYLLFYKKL
recombinant human His6-USP1/His6-UAF1 composite protein, sequence (Q8TAF3 whole entry partner): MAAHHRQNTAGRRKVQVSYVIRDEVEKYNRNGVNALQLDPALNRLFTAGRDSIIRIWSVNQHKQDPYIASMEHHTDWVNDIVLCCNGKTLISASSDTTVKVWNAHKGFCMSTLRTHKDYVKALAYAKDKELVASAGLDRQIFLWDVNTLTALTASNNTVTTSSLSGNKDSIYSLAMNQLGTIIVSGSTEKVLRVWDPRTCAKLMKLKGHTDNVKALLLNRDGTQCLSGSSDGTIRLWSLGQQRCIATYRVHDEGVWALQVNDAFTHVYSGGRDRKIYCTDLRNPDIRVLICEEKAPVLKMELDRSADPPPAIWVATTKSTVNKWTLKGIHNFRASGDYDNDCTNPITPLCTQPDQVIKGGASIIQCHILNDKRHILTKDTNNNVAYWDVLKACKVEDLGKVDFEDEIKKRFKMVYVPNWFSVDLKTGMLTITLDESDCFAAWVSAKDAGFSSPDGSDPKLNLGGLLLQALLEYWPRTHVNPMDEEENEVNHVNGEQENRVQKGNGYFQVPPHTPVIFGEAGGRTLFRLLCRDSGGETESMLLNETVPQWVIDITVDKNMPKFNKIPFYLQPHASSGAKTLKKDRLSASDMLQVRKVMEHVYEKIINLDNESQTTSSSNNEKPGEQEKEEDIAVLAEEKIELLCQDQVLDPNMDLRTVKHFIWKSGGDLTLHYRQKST
Description: USPli compounds were screened by USP1 enzyme activity detection experiment.
1.1 Experimental materials: recombinant human His6-USP1/His6-UAF1 composite protein. (R&D, catalog number E-568-050): Ubiquitin rhodamine 110 (Ub-Rho) (R&D, catalog number U-555-050); Fluorescent 384-well plate (Perkin Elmer, Art. No. 6007279).
1.2 Test sample: Compounds of table 3 in this application, whose structural formulae and preparation methods are shown in the above examples.
Using Equation (I) to fit data in Excel to obtain the inhibition value;
[formula] • wherein, the maximum signal value represents the luminous signal intensity of the positive control hole without adding the compound of the application; the minimum signal value represents the luminous signal intensity of the negative control hole without enzyme; and the target signal value represents the luminous signal intensity of the Test samples; and • fitting the data in XL-Fit with Equation (II) to obtain IC50 value:
[formula] • wherein Y is the inhibition rate, X is the concentration of the compound; Bottom is the lowest inhibition rate; Top is the highest inhibition rate; and HillSlope is the slope.

Turning to `COc1ncnc(C2CC2)c1-c1ncc2c3ccncc3n(Cc3ccc4c(c3)CCn3cc(C(F)(F)F)nc3-4)c2n1` [Compound 65], the concentration for half-maximal inhibition (IC50) came out at 59.6 nM.
In the case of `COc1cc(Cn2c3ccccc3c3cnc(-c4c(OC)ncnc4C4CC4)nc32)ccc1-c1nc(C(F)(F)F)cn1C(C)C` [Compound 18], the IC50 was determined as 7.38 nM.
For `COc1ncnc(C2CC2)c1-c1ncc2c3ccncc3n(Cc3ccc(-c4nc(C(F)(F)F)cn4C(C)C)cc3)c2n1` [Compound 29], the concentration for half-maximal inhibition (IC50) worked out at 4.62 nM.
Consider `COc1ncnc(C2CC2)c1-c1ncc2c3cn[nH]c3n(Cc3ccc(C4NC(C(F)(F)F)=CN4C(C)C)cc3)c2n1` (stereo not drawn) [Compound 89], for which the IC50 amounted to 4.7 nM.
For `COc1ncnc(C2CC2)c1-c1ncc2c3c(C(N)=O)cccc3n(Cc3ccc(-c4nc(C(F)(F)F)cn4C)cc3)c2n1` [Compound 47], the IC50 stood at 5.26 nM.
`COc1ncnc(C2CC2)c1-c1ncc2c3cn(C)nc3n(Cc3ccc(-c4nc(C(F)(F)F)c5ccccn45)cc3)c2n1` [Compound 156]: the IC50 was 3.5 nM.
`COc1ncnc(C2CC2)c1-c1ncc2c3ccc(C#N)cc3n(Cc3ccc4c(c3)COCCn3cc(C(F)(F)F)nc3-4)c2n1` [Compound 92]: the half-maximal inhibitory concentration (IC50) was determined as 25.9 nM.
`COc1ncnc(C2CC2)c1-c1ncc2c3cc(F)ccc3n(Cc3ccc(-c4nc(C(F)(F)F)cn4C(C)C)cc3)c2n1` [Compound 15]: the concentration for half-maximal inhibition (IC50) is 12.2 nM.
For the compound `COc1ncnc(C2CC2)c1-c1ncc2c3cn(C)nc3n(Cc3ccc(-c4nc(C(F)(F)F)c5n4CCCC5)cc3)c2n1` [Compound 120], the 50% inhibitory concentration (IC50) was 1.97 nM.
In the case of `COC(=O)c1ccc2c3cnc(-c4c(OC)ncnc4C4CC4)nc3n(Cc3ccc(-c4nc(C(F)(F)F)cn4C)cc3)c2c1` [Compound 42], the half-maximal inhibitory concentration (IC50) is 30.4 nM.
As for `COc1ncnc(C2CC2)c1-c1ncc2c3ccc(P4(=O)CCCC4)cc3n(Cc3ccc(-c4nc(C(F)(F)F)cn4C(C)C)cc3)c2n1` [Compound 109], the half-maximal inhibitory concentration (IC50) amounted to 11.9 nM.
As for `COc1ncnc(C2CC2)c1-c1ncc2c3ccc(F)nc3n(Cc3ccc4c(c3)CCCn3cc(C(F)(F)F)nc3-4)c2n1` [Compound 94], the IC50 stood at 3.69 nM.
For `COc1ncnc(C2CC2)c1-c1ncc2c3cn(C)nc3n(Cc3ccc4c(c3)CCCCn3cc(C(F)(F)F)nc3-4)c2n1` [Compound 138] the value was 1.8 nM.
On to `COc1ncnc(C2CC2)c1-c1ncc2c3ccc(S(C)(=O)=O)cc3n(Cc3ccc(-c4nc(C(F)(F)F)cn4C(C)C)cc3)c2n1` [Compound 14], for which the IC50 is 4.32 nM.
Consider `COc1ncnc(C2CC2)c1-c1ncc2c3ccc(P4(=O)CCCC4)cc3n(Cc3ccc(-c4nc(C(F)(F)F)cn4C(C)C)c(F)c3)c2n1` [Compound 141], for which the concentration for half-maximal inhibition (IC50) is 4 nM.
For `COc1ncnc(C2CC2)c1-c1ncc2c3sncc3n(Cc3ccc(-c4nc(C(F)(F)F)cn4C)cc3)c2n1` [Compound 60], the concentration for half-maximal inhibition (IC50) is 5.34 nM.
In the case of `COc1ncnc(C2CC2)c1-c1ncc2c3ccncc3n(Cc3ccc(-c4nc(C(F)(F)F)cn4C)cc3)c2n1` [Compound 55], the IC50 was found to be 7.9 nM.
For `COc1ncnc(C2CC2)c1-c1ncc2c3ccc(C#N)nc3n(Cc3ccc4c(c3)CCCn3cc(C(F)(F)F)nc3-4)c2n1` [Compound 140] the value was 7.29 nM.
In the case of `COc1ncnc(C2CC2)c1-c1ncc2c3ccc(C#N)cc3n(Cc3cc(O)c4c(c3)OCCn3cc(C(F)(F)F)nc3-4)c2n1` [Compound 77] it was 99.1 nM; in that of `COc1ncnc(C2CC2)c1-c1ncc2c3cn(C)nc3n(Cc3ccc(-c4nc(C(F)(F)F)cs4)cc3)c2n1` [Compound 166], 10.2 nM.
Regarding `COc1ncnc(C2CC2)c1-c1ncc2c3cn(C)nc3n(Cc3ccc4c(c3)C3C(Cn5cc(C(F)(F)F)nc5-4)C3(F)F)c2n1` (stereo not drawn) [Compound 133], the IC50 is 22 nM.
`COc1ncnc(C2CC2)c1-c1ncc2c3ncncc3n(Cc3ccc4c(c3)CCCn3cc(C(F)(F)F)nc3-4)c2n1` [Compound 112]: the half-inhibitory concentration (IC50) is 23.9 nM.
With `COc1ncnc(C2CC2)c1-c1ncc2c3cccnc3n(Cc3ccc4c(c3)CCCn3cc(C(F)(F)F)nc3-4)c2n1` [Compound 63], the 50% inhibitory concentration (IC50) amounted to 2.74 nM.
For `COc1ncnc(C2CC2)c1-c1ncc2c3cc(C(F)(F)F)ccc3n(Cc3ccc(-c4nc(C(F)(F)F)cn4C(C)C)cc3)c2n1` [Compound 22], the half-maximal inhibitory concentration (IC50) amounted to 135 nM.
`COc1ncnc(C2CC2)c1-c1ncc2c3ccc(C(N)=O)cc3n(Cc3ccc(-c4nc(C(F)(F)F)cn4C)cc3)c2n1` [Compound 28]: the IC50 is 5.95 nM.
In the case of `COc1ncnc(C2CC2)c1-c1ncc2c3ccncc3n(Cc3ccc(-c4nc(C(F)(F)F)c(Br)n4C)cc3)c2n1` [Compound 152], the IC50 turned out to be 11 nM.
As to `COc1ncnc(C2CC2)c1-c1ncc2c3ccc(C#N)cc3n(Cc3ccc4c(c3)Cn3cc(C(F)(F)F)nc3-4)c2n1` [Compound 70], the IC50 is 191 nM.
For the compound `COc1ncnc(C2CC2)c1-c1ncc2c3cn(C)nc3n(Cc3ccc(-c4nc(C(F)(F)F)c5n4CCC5)cc3)c2n1` [Compound 114], the IC50 is 1.89 nM.
As for `COc1ncnc(C2CC2)c1-c1ncc2c3cc(S(C)(=O)=O)ccc3n(Cc3ccc(-c4nc(C(F)(F)F)cn4C)cc3)c2n1` [Compound 37], the 50% inhibitory concentration (IC50) was 58 nM.
For `COc1ncnc(C2CC2)c1-c1ncc2c3cn(C)nc3n(Cc3cc(F)c(-c4nc(C(F)(F)F)cn4C)c(F)c3)c2n1` [Compound 115], the half-maximal inhibitory concentration (IC50) was 3.03 nM.
As for `[2H]C([2H])([2H])n1cc2c3cnc(-c4c(OC)ncnc4C4CC4)nc3n(Cc3ccc(-c4nc(C(F)(F)F)cn4C(C)C)c(F)c3)c2n1` [Compound 145], the 50% inhibitory concentration (IC50) stood at 5.91 nM.
Turning to `COc1ncnc(C2CC2)c1-c1ncc2c3cccnc3n(Cc3ccc(-c4nc(C(F)(F)F)cn4C)cc3)c2n1` [Compound 53], the IC50 stood at 5.58 nM.
For `Cn1cc(C(F)(F)F)nc1-c1ccc(Cn2c3cnccc3c3cnc(-c4cccc5ccn(C)c45)nc32)cc1` [Compound 85], the 50% inhibitory concentration (IC50) came out at 73.5 nM.
For the compound `COc1ncnc(C2CC2)c1-c1ncc2c3cn(C)nc3n(Cc3cc(F)c(-c4nc(C(F)(F)F)c5n4CCC5)c(F)c3)c2n1` [Compound 144], the IC50 turned out to be 3.17 nM.
For the compound `[2H]C([2H])([2H])n1cc2c3cnc(-c4c(OC)ncnc4C4CC4)nc3n(Cc3ccc(-c4nc(C(F)(F)F)cn4C(C)C)cc3)c2n1` [Compound 110], the IC50 was found to be 9.5 nM.
As for `COc1ncnc(C2CC2)c1-c1ncc2c3c(C#N)cccc3n(Cc3ccc(-c4nc(C(F)(F)F)cn4C)cc3)c2n1` [Compound 39], the IC50 was 29.9 nM.
In the case of `COc1cnn(C2CCC2)c1-c1ncc2c3ccncc3n(Cc3ccc(-c4nc(C(F)(F)F)cn4C)cc3)c2n1` [Compound 81] it was 7.15 nM; in that of `COc1ncnc(C2CC2)c1-c1ncc2c3ccc(F)nc3n(Cc3ccc(-c4nc(C(F)(F)F)cn4C)cc3)c2n1` [Compound 73], 4.9 nM; in that of `COc1ncnc(C2CC2)c1-c1ncc2c3ccc(N(C)S(C)(=O)=O)cc3n(Cc3ccc(-c4nc(C(F)(F)F)cn4C)cc3)c2n1` [Compound 82], 4.45 nM.
In the case of `COc1ncnc(C2CC2)c1-c1ncc2c3cnn(C)c3n(Cc3ccc4c(c3)CCCn3cc(C(F)(F)F)nc3-4)c2n1` [Compound 123] it was 13.7 nM; in that of `CNc1ccc2c3cnc(-c4c(OC)ncnc4C4CC4)nc3n(Cc3ccc(-c4nc(C(F)(F)F)cn4C)cc3)c2n1` [Compound 74], 4.13 nM.
Turning to `COc1ncnc(C2CC2)c1-c1ncc2c3cc(C(C)(C)O)ccc3n(Cc3ccc(-c4nc(C(F)(F)F)cn4C)cc3)c2n1` [Compound 34], the 50% inhibitory concentration (IC50) amounted to 62 nM.
